Reference: patent US20220226338A1, “Methods of Treating Cancer Using CHK1 Inhibitors” (Sierra Oncology, Inc., priority 2019, published 2022)

Experiments:
plasma protein [1] = assay: Plasma protein binding, rapid equilibrium dialysis, dog plasma; assay type: in vitro ADME; settings: 10 μM
Description: (§1) The PK of SRA737 have been determined in the mouse, rat, dog and monkey following oral and IV administration (Table 3). […] An acceptable terminal elimination t1/2 was also observed in each species. […] The plasma protein binding of SRA737 at 1 and 10 μM was examined in mouse, minipig, monkey and human plasma using ultracentrifugation and in dog plasma (10 μM) using rapid equilibrium dialysis.

[2] = SRA737 monotherapy clinical study (SRA737-01), safety and tolerability; assay type: in vivo
Description: A Phase 1 clinical trial was conducted in ‘all comers,’ i.e. no genetic selection was performed, to establish safety, tolerability and pharmacokinetics (“Dose Escalation Phase”). Cohorts consisting initially of a single subject received escalating doses of SRA737, starting in Cohort 1 with 20 mg/day administered orally on a continuous daily dosing schedule in 28 day cycles. the dose was escalated until the maximum tolerated dose (MTD) was identified.
In the Dose Escalation Phase, 18 subjects received SRA737 in 9 dose level cohorts, from 20 to 1300 mg QD; median treatment duration 62.5 days (range 1 to 226). […] Two of 3 subjects experienced DLTs at the 1300 mg once daily dose, each being an inability to receive 75% of the planned SRA737 dose due to GI intolerability, with the individual GI effects being low grade. […] A cohort receiving 500 mg twice daily was added to determine if a twice daily dosing schedule can improve GI tolerability, given the half-life of SRA737 is approximately 10 hours. One of 6 subjects experienced DLTs in the 500 mg twice daily cohort; this was an inability to receive 75% of the planned SRA737 dose due to grade 4 thrombocytopenia with grade 3 neutropenia and anemia.
A Dose Escalation phase employed an accelerated titration design starting at 20 mg SRA737, administered QD orally in 28-day cycles. Incremental dose escalations in single-subject cohorts were followed by a rolling-6 design once SRA737-related ≥Grade 2 toxicity was observed during Cycle 1.
Dose limiting toxicities (DLTs) were assessed following a pharmacokinetic (PK) lead-in dose, and throughout Cycle 1 of treatment, and were defined as adverse events highly probably or probably related to SRA737: grade ≥4 neutropenia or thrombocytopenia lasting >7 days, grade ≥3 febrile neutropenia or thrombocytopenia with bleeding, grade ≥3 non-hematologic toxicity, or the inability to receive ≥75% of the planned SRA737 dose in Cycle 1 due to drug-related toxicity.

Single dose PK, rat = assay type: in vivo; settings: Rat oral 10 mg/kg single dose
Text: (§2) Several studies have been conducted to evaluate the PK properties of SRA737, such as the absorption (in vitro permeability assays and in vivo PK following IV and oral administration), distribution (in vivo tissue distribution and in vitro plasma protein binding) and metabolism (in vitro hepatocyte and CYP inhibition and induction studies) of SRA737.
as §1

Single dose PK, monkey = assay type: in vivo
Text: as §2, §1

cancer xenograft models = assay: In vivo efficacy studies in xenograft, PDX and syngeneic models; parameters: species or system mouse
Description: A program of in vivo efficacy studies was performed to assess the activity of SRA737 in combination with genotoxic chemotherapy and targeted agents, and as monotherapy.
One of these models also carried a MYCN amplification. A fourth HGSOC PDX model with partial resistance to PARPi was also sensitive to high dose SRA737 monotherapy.

plasma protein [3] = assay: Plasma protein binding, ultracentrifugation, mouse plasma; assay type: in vitro ADME; settings: for Percentage Bound / Percentage Free: Mouse plasma
Description: as §1

Chk1 autophosphorylation = assay: In vitro Chk1 inhibition after genotoxic chemotherapy (autophosphorylation, checkpoint arrest, cytotoxicity potentiation); assay type: cell-based
[4] = GLP 28-day repeat oral dose toxicity and toxicokinetics, minipig; assay type: in vivo
Description: Reference source not found.6.
These findings were reversible on cessation of drug administration.
The MTD was 75 mg/kg/day (225 mg/m^2/day) in the mouse and the HNSTD was […] (350 mg/m^2/day) in the minipig.

plasma protein [5] = assay: Plasma protein binding, ultracentrifugation, monkey plasma; assay type: in vitro ADME
Description: as §1

[6] = Excretion in urine and feces, rats; assay type: in vivo; settings: rat, over 24 hours
Description: The excretion of SRA737 has been studied in mice and rats administered SRA737 at either 5 mg/kg IV or 10 mg/kg orally. Urine and feces were collected for a 24-hour period after dosing. In mice, renal excretion of intact SRA737 was consistently low (less than 10% of dose) after both oral and IV administration. Following IV administration of SRA737, less than 8% of the dose was recovered as intact drug in the feces while after oral administration this figure was less than 3%. Excretion of intact SRA737 was lower in the rat than in the mouse with <1% of dose excreted renally over 24 hours and less than 1.5% of dose excreted into the feces over 24 hours.

N#Cc1cnc(Nc2cc(NCC3CNCCO3)c(C(F)(F)F)cn2)cn1 (stereo not shown) [SRA737, 5-[[4-[[morpholin-2-yl]methylamino]-5-(trifluoromethyl)-2-pyridyl]amino]pyrazine-2-carbonitrile]
Percentage Bound (plasma protein [1]): 68.8% | Percentage Free (plasma protein [1]): 31.2% | AST increased ([2]; human, in vivo): 3% | TEAEs mild to moderate in severity (Grade 1/Grade 2) ([2]; human, in vivo): 90% | abdominal pain ([2]; human, in vivo): 3% | abdominal pain upper ([2]; human, in vivo): 3% | diarrhea, most common TEAEs ([2]; human, in vivo): 68% | disease progression ([2]; human, in vivo): 8% | dose-limiting toxicities (DLTs) ([2]; human, in vivo): without any dose-limiting toxicities | dyspnea ([2]; human, in vivo): 3% | emergent or cumulative toxicity and/or declining tolerability ([2]; human, in vivo): No evidence of emergent or cumulative toxicity and/or declining tolerability | fatigue ([2]; human, in vivo): 3% | fatigue, most common TEAEs ([2]; human, in vivo): 47% | hyponatremia ([2]; human, in vivo): 4% | infection ([2]; human, in vivo): 4% | lymphocyte count decreased ([2]; human, in vivo): 5% | nausea ([2]; human, in vivo): 3% | nausea, most common TEAEs ([2]; human, in vivo): 66% | neutropenia ([2]; human, in vivo): 8% | pleural effusion ([2]; human, in vivo): 3% | rash maculo-papular ([2]; human, in vivo): 3% | recommended monotherapy dose ([2]; human, in vivo): 800 mg/day | subjects with at least one SRA737-related event ([2]; human, in vivo): 91% | tolerability of 800 mg once daily ([2]; human, in vivo): overall better tolerated than 1000 mg | vomiting, most common TEAEs ([2]; human, in vivo): 51% | subjects experiencing DLTs ([2]; human, in vivo, 28 days): 3 subjects | maximum tolerated dose (MTD) ([2]; monotherapy): 1000 mg/day | recommended dose for expansion cohorts (RP2D) ([2]; monotherapy): 800 mg QD | relatedness of Grade 5 TEAEs ([2]; monotherapy): none were considered related to SRA737 | subjects with treatment-emergent adverse events (TEAEs) ([2]; monotherapy): 106 (99%) n (%) | maximum tolerated dose (MTD) ([2]; monotherapy, once daily): 1000 mg QD | maximum tolerated dose (MTD) ([2]; monotherapy, twice daily): 500 mg BID | number of Grade 5 TEAEs ([2]; monotherapy, up to 30-days post last treatment): Six | Foral (Single dose PK, rat): 42% | Foral (Single dose PK, monkey; Monkey oral 2 mg/kg single dose): 90% | Foral (Single dose PK, monkey; Monkey oral 10 mg/kg single dose): 104% | synergy with gemcitabine and carboplatin (cancer xenograft models; Calu6 model, data not shown): Synergy | antitumor activity as a single agent (cancer xenograft models; HGSOC PDX models harboring CCNE1 amplifications accompanied by TP53 mutations, data not shown): Significant antitumor activity | synergy with low-dose gemcitabine (cancer xenograft models; HT29 (FIG. 5), OVCAR3 and SJSA-1 CDX models, PDX model of TNBC): Synergy was also observed | antitumor activity in combination with standard-dose gemcitabine (cancer xenograft models; HT29, SJSA-1, SW620, Calu6, KPC-1 and patient-derived bladder carcinoma xenograft models, data not shown): Significant, dose-dependent antitumor activity | synergy with irinotecan (cancer xenograft models; HT29 model, data not shown): Synergy | single agent efficacy (cancer xenograft models; OVCAR3, Eμ-Myc, MOLM-13, TH-MYC, MDA-MB-231, Renca and LL/2 models, data not shown): demonstrated single agent efficacy | sensitivity to high dose SRA737 monotherapy (cancer xenograft models; fourth HGSOC PDX model with partial resistance to PARPi): sensitive | antitumor activity in combination with a PD1/PD-L1 inhibitor (cancer xenograft models; syngeneic mouse models mTmG, MC38 and Pan02, data not shown): Significant antitumor activity | Percentage Bound (plasma protein [3]; 1 μM): 94.5% | Percentage Free (plasma protein [3]; 1 μM): 5.5% | Percentage Bound (plasma protein [3]; 10 μM): 93.4% | Percentage Free (plasma protein [3]; 10 μM): 6.6% | plasma protein binding (plasma protein [3]; mouse): ~94% | inhibition of genotoxicity-induced checkpoint arrest (Chk1 autophosphorylation): dose-dependent inhibition | potentiation of the cytotoxicity of genotoxic chemotherapeutic agents and targeted agents (Chk1 autophosphorylation): dose-dependent potentiation | inhibition of genotoxic chemotherapy-induced Chk1 autophosphorylation (Chk1 autophosphorylation; data not shown): potently inhibited | changes in reproductive organs ([4]; minipig): changes in reproductive organs, particularly the testes, were also observed | toxicological findings in the GI tract ([4]; minipig): Toxicological findings in the GI tract were also observed | dose-dependent toxicological findings ([4]; minipig pivotal study, reversible on cessation of drug administration): bone marrow toxicity | Percentage Bound (plasma protein [5]; 1 μM): 88.8% | Percentage Free (plasma protein [5]; 1 μM): 11.2% | Percentage Bound (plasma protein [5]; 10 μM): 85.8% | Percentage Free (plasma protein [5]; 10 μM): 14.2% | intact SRA737 excreted into the feces [6]: less than 1.5 % of dose | intact SRA737 excreted renally [6]: < 1 % of dose
